Data: ChEMBL document CHEMBL1125402, “Conformational effects on the activity of drugs. 13. A revision of previously proposed models for the activation of alpha- and beta-adrenergic receptors” (J Med Chem, 1992)

Columns and labels:
[1] = molecular target: T1, Adrenergic receptor alpha-1 (Rattus norvegicus, UniProt P15823+P23944+P43140); test: Compound was evaluated for alpha adrenergic binding affinity towards alpha-1 receptor of rat brain
T1 sequence (P15823 whole entry): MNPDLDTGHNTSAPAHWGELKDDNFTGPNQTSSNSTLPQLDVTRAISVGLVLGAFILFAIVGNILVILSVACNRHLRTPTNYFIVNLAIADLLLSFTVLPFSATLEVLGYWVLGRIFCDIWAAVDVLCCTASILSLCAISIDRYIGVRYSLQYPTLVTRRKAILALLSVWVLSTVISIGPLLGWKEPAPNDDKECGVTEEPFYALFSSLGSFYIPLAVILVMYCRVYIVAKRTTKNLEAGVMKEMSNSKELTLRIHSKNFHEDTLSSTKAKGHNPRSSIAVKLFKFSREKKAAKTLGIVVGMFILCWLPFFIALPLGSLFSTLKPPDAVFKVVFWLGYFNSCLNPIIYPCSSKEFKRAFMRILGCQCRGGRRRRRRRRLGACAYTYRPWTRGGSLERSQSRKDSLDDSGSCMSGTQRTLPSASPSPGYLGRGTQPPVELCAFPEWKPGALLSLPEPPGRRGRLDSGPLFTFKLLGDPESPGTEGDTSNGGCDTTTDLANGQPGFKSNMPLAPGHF
T1 sequence (P23944 whole entry): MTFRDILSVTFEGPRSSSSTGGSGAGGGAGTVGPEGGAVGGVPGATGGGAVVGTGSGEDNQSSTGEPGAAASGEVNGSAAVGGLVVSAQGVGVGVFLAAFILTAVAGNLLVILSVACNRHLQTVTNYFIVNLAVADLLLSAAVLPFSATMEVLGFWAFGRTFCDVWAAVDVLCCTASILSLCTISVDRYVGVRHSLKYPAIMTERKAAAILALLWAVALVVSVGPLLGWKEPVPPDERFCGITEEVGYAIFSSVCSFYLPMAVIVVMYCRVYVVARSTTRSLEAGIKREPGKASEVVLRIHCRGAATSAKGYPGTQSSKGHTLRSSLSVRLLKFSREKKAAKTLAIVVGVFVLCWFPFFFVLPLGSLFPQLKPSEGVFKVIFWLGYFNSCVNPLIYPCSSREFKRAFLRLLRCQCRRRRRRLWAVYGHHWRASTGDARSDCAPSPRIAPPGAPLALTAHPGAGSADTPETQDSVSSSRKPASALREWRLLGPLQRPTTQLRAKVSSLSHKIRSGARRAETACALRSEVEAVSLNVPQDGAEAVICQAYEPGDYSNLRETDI
T1 sequence (P43140 whole entry): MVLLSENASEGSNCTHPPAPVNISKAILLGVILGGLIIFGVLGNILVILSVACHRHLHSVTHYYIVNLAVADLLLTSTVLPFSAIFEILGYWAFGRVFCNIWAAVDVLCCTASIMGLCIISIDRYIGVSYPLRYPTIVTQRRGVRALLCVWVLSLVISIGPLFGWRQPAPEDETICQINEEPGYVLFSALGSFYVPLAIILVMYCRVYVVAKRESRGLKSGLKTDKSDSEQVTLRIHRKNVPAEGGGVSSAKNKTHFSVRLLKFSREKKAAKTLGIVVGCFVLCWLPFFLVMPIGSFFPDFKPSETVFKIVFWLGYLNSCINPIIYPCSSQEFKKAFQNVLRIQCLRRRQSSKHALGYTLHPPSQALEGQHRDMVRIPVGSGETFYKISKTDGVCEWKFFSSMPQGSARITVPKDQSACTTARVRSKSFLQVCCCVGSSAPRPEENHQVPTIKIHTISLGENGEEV

[2] = molecular target: T2, Adrenergic receptor alpha-2 (Rattus norvegicus, UniProt P22086+P19328+P22909); test: Compound was evaluated for alpha adrenergic binding affinity towards Alpha-2 adrenergic receptor of rat brain
T2 sequence (P22086 whole entry): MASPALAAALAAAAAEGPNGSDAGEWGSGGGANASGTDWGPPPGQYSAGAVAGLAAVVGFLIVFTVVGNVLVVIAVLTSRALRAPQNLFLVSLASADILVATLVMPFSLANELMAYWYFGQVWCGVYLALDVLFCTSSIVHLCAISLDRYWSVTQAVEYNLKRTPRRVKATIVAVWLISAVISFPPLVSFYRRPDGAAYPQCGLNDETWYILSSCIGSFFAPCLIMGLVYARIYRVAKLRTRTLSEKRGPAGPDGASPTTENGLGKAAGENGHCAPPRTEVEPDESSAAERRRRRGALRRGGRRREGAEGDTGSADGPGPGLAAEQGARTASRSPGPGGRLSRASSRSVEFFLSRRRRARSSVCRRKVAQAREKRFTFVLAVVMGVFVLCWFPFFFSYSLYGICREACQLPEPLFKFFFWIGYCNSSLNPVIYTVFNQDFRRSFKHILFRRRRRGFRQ
T2 sequence (P19328 whole entry): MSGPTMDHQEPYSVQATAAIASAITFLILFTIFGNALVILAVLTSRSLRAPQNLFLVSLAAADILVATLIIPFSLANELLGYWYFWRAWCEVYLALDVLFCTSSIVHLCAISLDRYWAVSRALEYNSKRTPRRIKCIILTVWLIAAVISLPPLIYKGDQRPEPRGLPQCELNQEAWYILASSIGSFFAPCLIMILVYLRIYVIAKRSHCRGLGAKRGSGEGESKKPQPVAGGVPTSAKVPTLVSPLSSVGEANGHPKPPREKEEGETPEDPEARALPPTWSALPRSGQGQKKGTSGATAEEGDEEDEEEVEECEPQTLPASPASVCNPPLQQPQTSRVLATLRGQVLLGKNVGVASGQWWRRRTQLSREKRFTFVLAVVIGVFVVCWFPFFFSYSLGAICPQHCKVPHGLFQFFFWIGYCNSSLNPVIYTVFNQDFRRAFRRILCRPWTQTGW
T2 sequence (P22909 whole entry): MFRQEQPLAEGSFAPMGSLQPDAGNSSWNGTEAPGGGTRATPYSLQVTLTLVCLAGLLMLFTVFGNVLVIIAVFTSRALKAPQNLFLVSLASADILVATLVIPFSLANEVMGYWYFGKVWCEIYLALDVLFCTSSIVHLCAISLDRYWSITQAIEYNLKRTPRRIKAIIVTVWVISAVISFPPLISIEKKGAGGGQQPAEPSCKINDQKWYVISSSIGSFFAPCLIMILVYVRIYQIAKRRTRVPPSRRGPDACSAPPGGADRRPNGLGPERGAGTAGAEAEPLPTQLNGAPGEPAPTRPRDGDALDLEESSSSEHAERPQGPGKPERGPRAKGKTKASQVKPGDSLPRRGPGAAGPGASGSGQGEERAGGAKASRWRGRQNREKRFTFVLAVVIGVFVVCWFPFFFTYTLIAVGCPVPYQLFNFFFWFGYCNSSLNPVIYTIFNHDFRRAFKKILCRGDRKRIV

[3] = molecular target: Beta-1 adrenergic receptor (Cavia porcellus) (UniProt B0FL73); test: Compound was evaluated for beta adrenoceptor agonistic activity towards Beta-1 adrenergic receptor of isolated guinea pig atria (exp 2); assay type: functional
[4] = molecular target: Beta-1 adrenergic receptor (Cavia porcellus) (UniProt B0FL73); test: Compound was evaluated for beta adrenoceptor agonistic activity towards beta 1 receptor of isolated guinea pig atria (exp 1); assay type: functional
[5] = molecular target: T3, Adrenergic receptor alpha-1 (Rattus norvegicus) (UniProt P15823+P23944+P43140); test: Compound was evaluated for alpha adrenoceptor agonistic activity towards alpha 1 receptor of isolated rat vas deferens; assay type: functional, tissue-based
[6] = molecular target: T1, Adrenergic receptor alpha-1; test: Binding affinity towards Alpha-1 adrenergic receptor of rat brain
[7] = molecular target: Beta-2 adrenergic receptor (Cavia porcellus) (UniProt Q8K4Z4); test: Compound was evaluated for beta adrenoceptor agonistic activity towards beta 2 receptor of isolated guinea pig tracheal strip (exp 1 2); assay type: functional
[8] = molecular target: Beta-2 adrenergic receptor (Cavia porcellus) (UniProt Q8K4Z4); test: Compound was evaluated for beta adrenoceptor agonistic activity towards Beta-2 adrenergic receptor of isolated guinea pig tracheal strip (exp 1 2); assay type: functional
[9] = molecular target: Beta-1 adrenergic receptor (Cavia porcellus) (UniProt B0FL73); test: Compound was evaluated for beta adrenoceptor agonistic activity towards Beta-1 adrenergic receptor of isolated guinea pig atria (exp 1); assay type: functional
[10] = molecular target: Beta-2 adrenergic receptor (Bos taurus, UniProt Q28044); test: Compound was evaluated for beta adrenergic binding affinity towards beta-2 receptor of bovine lung
[11] = molecular target: T4, Beta-1 adrenergic receptor (Rattus norvegicus, UniProt P18090)
Description: Compound was evaluated for beta adrenergic binding affinity towards Beta-1 adrenergic receptor of rat brain

[12] = molecular target: T3, Adrenergic receptor alpha-1 (Rattus norvegicus); test: Compound was evaluated for alpha adrenoceptor agonistic activity towards Alpha-1 adrenergic receptor of isolated rabbit aortic strips (exp 2); assay type: functional
[13] = molecular target: Adrenergic receptor alpha-2 (Homo sapiens) (UniProt P08913+P18825+P18089); details: Cavia porcellus; Ileum
Description: Intrinsic activity was expressed as the ratio between maximal response elicited by compound and that elicited by full agonist NE towards Alpha-2 adrenergic receptor of isolated guinea pig ileum

[14] = molecular target: Adrenergic receptor alpha-1 (Homo sapiens) (UniProt P35348+P25100+P35368); test: Compound was evaluated for alpha adrenoceptor agonistic activity towards Alpha-1 adrenergic receptor of isolated rat vas deferens; assay type: functional, tissue-based; details: Oryctolagus cuniculus
[15] = molecular target: Beta-1 adrenergic receptor (Cavia porcellus) (UniProt B0FL73)
Description: Intrinsic activity was expressed as the ratio between maximal response elicited by compound and that elicited by full agonist ISO towards Beta-1 adrenergic receptor of isolated guinea pig atria

[16] = molecular target: Beta-2 adrenergic receptor (Cavia porcellus) (UniProt Q8K4Z4)
[17] = molecular target: T3, Adrenergic receptor alpha-1 (Rattus norvegicus); test: Compound was evaluated for alpha adrenoceptor agonistic activity towards alpha 1 receptor of isolated rat vas deferens (exp 1); assay type: functional, tissue-based
[18] = molecular target: T3, Adrenergic receptor alpha-1 (Rattus norvegicus); test: Compound was evaluated for alpha adrenoceptor agonistic activity towards Alpha-1 adrenergic receptor of isolated rat vas deferens (exp 2); assay type: functional, tissue-based
[19] = molecular target: T4, Beta-1 adrenergic receptor; test: Compound was evaluated for beta adrenergic binding affinity towards beta-1 receptor of rat brain
[20] = molecular target: Beta-1 adrenergic receptor (Cavia porcellus) (UniProt B0FL73); test: Intrinsic activity was expressed as the ratio between maximal response elicited by compound and that elicited by full agonist ISO towards beta 1 receptor of isolated guinea pig atria; assay type: functional
[21] = molecular target: Beta-1 adrenergic receptor (Cavia porcellus) (UniProt B0FL73); test: Compound was evaluated for beta adrenoceptor agonistic activity towards beta 1 receptor of isolated guinea pig atria; assay type: functional

Sequence of Beta-2 adrenergic receptor (Cavia porcellus) (Q8K4Z4 whole entry, looked up): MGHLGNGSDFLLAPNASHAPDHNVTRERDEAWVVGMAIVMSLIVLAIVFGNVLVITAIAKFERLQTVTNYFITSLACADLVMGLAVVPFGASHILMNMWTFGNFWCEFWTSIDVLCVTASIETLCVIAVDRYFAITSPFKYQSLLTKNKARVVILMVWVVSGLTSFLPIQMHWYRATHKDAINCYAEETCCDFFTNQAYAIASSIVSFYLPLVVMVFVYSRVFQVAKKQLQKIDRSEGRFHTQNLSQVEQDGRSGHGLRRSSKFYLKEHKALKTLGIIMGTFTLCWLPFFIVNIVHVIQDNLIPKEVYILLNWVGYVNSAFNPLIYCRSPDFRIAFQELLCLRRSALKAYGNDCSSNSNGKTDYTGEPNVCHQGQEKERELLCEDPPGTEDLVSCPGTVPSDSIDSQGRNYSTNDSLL
Sequence of Beta-1 adrenergic receptor (Cavia porcellus) (B0FL73 1-467): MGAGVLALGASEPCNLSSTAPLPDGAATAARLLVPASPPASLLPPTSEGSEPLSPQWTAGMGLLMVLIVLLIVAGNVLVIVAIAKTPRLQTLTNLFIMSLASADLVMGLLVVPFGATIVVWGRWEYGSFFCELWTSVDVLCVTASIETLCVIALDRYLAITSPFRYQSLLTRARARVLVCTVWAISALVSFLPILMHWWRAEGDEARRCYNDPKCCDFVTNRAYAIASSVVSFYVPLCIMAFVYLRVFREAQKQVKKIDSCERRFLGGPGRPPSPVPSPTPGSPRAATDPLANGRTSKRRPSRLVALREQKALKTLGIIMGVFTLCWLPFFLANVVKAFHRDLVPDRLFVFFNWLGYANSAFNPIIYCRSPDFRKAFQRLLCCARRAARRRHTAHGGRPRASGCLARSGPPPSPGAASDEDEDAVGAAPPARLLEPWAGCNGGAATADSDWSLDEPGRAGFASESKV
Sequence of Beta-2 adrenergic receptor (Q28044 whole entry): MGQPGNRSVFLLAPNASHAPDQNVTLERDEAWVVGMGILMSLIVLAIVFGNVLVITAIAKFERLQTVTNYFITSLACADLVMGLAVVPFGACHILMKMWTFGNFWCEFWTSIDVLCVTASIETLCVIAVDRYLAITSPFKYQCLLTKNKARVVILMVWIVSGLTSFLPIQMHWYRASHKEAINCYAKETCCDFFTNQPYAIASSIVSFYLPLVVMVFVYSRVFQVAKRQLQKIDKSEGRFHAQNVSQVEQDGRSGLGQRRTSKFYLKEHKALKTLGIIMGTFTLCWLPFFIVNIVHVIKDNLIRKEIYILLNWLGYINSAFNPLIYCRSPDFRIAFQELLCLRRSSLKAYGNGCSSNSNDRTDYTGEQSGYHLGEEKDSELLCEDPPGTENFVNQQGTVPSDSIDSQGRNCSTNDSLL
T4 sequence (P18090 whole entry): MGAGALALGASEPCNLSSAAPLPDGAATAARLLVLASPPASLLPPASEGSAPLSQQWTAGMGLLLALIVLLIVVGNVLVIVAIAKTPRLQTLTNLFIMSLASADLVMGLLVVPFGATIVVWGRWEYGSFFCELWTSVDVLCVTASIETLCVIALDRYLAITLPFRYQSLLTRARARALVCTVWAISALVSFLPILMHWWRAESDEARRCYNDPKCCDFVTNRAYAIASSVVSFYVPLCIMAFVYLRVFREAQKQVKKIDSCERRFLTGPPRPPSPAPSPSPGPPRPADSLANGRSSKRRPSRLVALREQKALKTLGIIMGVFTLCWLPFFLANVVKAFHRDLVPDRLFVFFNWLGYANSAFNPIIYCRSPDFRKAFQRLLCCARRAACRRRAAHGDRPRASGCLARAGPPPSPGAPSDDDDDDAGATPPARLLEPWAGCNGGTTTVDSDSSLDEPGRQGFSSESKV

| Compound | Ki [2] [µM] | Ki [6] [µM] | Ki [10] [µM] | Ki [11] [µM] | pD2 [13] | pD2 [16] | pD2 [17] | Intrinsic activity [18] | further results |
| --- | --- | --- | --- | --- | --- | --- | --- | --- | --- |
| CC(C)NCC(O)c1ccc(O)c(O)c1 (centres undefined) [ISOPROTERENOL] | 21 |  |  |  |  |  |  |  | Ki [1]: 35.5 µM |
| N[C@@H]1CCc2c(ccc(O)c2O)[C@H]1O | 2.9 | > 100 | 0.12 | 8 | 5.32 |  |  |  | Intrinsic activity [3]: 1; pD2 [4]: 4.96; pD2 [5]: 3.7; pD2 [7]: 7.49; pD2 [8]: 7.78; pD2 [9]: 6.74; Intrinsic activity [12]: 0.87; pD2 [14]: < 3.5 |
| Oc1ccc(C2(O)CCCNC2)cc1O (centres undefined) | 0.5 | 15 | > 100 | > 100 | 5.56 | 4.44 | 4.76 | 0.95 | pD2 [15]: 3.81 |
| Oc1ccc(C2CNCCO2)cc1O (centres undefined) | 0.026 | 7.4 | 9.2 |  | 7.34 | 4.76 | 4.88 | 0.91 | Ki [19]: 15 µM; Intrinsic activity [20]: 0.91; pD2 [21]: 5.31 |
